Experimental data published in PubChem BioAssay (NCI).
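Five concentrations, 48 hours, 96-well plates. GI50: concentration for 50% inhibition of growth. TGI: concentration producing complete growth inhibition.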

Tests used:
Assay in all cases: NCI anticancer screen, dose series, 48 h
A549 NSCLC = system: A549 NSCLC
EKVX NSCLC = system: EKVX NSCLC
HCC-2998 colon = system: HCC-2998 colon
HOP-92 NSCLC = system: HOP-92 NSCLC
M14 melanoma = system: M14 melanoma
MOLT-4 leukemia = system: MOLT-4 leukemia
SF-268 CNS = system: SF-268 CNS
SK-MEL-2 melanoma = system: SK-MEL-2 melanoma
SN12C renal = system: SN12C renal
TK-10 renal = system: TK-10 renal

Row | SMILES | GI50 (A549 NSCLC) [µM] | TGI (A549 NSCLC) [µM] | GI50 (EKVX NSCLC) [µM] | TGI (EKVX NSCLC) [µM] | GI50 (HCC-2998 colon) [µM] | TGI (HCC-2998 colon) [µM] | GI50 (HOP-92 NSCLC) [µM] | TGI (HOP-92 NSCLC) [µM] | GI50 (M14 melanoma) [µM] | TGI (M14 melanoma) [µM] | GI50 (MOLT-4 leukemia) [µM] | TGI (MOLT-4 leukemia) [µM] | GI50 (SF-268 CNS) [µM] | TGI (SF-268 CNS) [µM] | GI50 (SK-MEL-2 melanoma) [µM] | TGI (SK-MEL-2 melanoma) [µM] | GI50 (SN12C renal) [µM] | TGI (SN12C renal) [µM] | GI50 (TK-10 renal) [µM] | TGI (TK-10 renal) [µM]
1 | Fc1ccc(-c2nn3ccccc3c2-c2ccncc2)cc1 | > 25 | > 25 | > 20.2 | > 25 | > 25 | > 25 | 4.53 | > 25 | > 25 | > 25 | > 25 | > 25 | > 25 | > 25 | > 25 | > 25 | > 25 | > 25 | 12 | > 25
2 | CCN(CC)c1ccc(-c2cc(-c3cc(OC)c(OC)c(OC)c3)nc(N3CCC(O)CC3)c2C#N)cc1 | 0.326 | – | 0.613 | > 100 | 0.374 | 2.13 | 0.215 | 0.689 | 0.262 | 0.799 | 0.621 | 5.17 | 0.988 | 3.13 | 0.289 | 0.889 | 0.626 | 3.19 | 1.1 | 6.92
3 | COc1ccc2c(c1)CCc1cc(OC)ccc1/[N+]([O-])=[N+]\2[O-] | – | > 67.6 | – | 42.5 | – | 58.2 | – | 27.2 | – | > 46.4 | – | 20.3 | – | 32.9 | – | 43.8 | – | 31.6 | – | 45
4 | C#C[C@@]1(O)[C@@H](CO)O[C@@H](n2cc(C(F)(F)F)c3c(N)ncnc32)[C@@H]1O | 0.871 | > 19.7 | 1.62 | > 25.9 | 0.423 | 4.24 | 1.24 | 7.46 | 0.724 | 3.56 | 0.29 | 1.33 | 1.55 | > 22.9 | 0.913 | 2.85 | 0.658 | > 100 | 0.966 | > 28.2
5 | CCCCCCCCCCCCCCCC(=O)OCCOCCOCCOCCOCCOC(=O)CCCCCCCCCCCCCCC | – | > 100 | – | > 100 | – | > 100 | – | > 100 | – | > 100 | – | > 100 | – | > 100 | – | > 100 | – | > 100 | – | > 100
6 | CCCCCCCCCCCCN=C(N)c1ccc(N2CCN(c3ccc(C(N)=NCCCCCCCCCCCC)cc3)CC2)cc1 | 11.1 | 30.5 | 9.76 | 20.5 | 8.67 | 17 | 0.614 | 2.86 | 7.82 | 16.4 | 4.4 | > 50 | 9.84 | 21.1 | 17.5 | > 50 | 8.99 | 18.7 | 13.2 | > 50
7 | O=C(Nc1ccc(Cl)cc1C(=O)O)c1ccc([N+](=O)[O-])cc1 | – | > 100 | – | 82.8 | – | 39.6 | – | 22.6 | – | 60.8 | – | 61.7 | – | > 100 | – | 16.9 | – | > 100 | – | 86.4
8 | COc1ccc(C2C(C#N)=C(N)Oc3c2sc2c(Br)cccc32)cc1 (centres undefined) | 4.69 | 21 | 4.38 | 21 | 1.64 | 6.25 | 8.88 | 26.4 | 1.46 | 6.8 | 1.55 | 6.78 | 4.62 | 21.5 | 2.38 | 12.7 | 4 | 17 | 8.48 | 22.2
9 | COc1ccc(C(=O)c2cc3c(N)c(C(=O)Nc4cccc(Br)c4C)sc3nc2C)cc1 | 0.132 | > 100 | 0.0954 | > 100 | 0.302 | > 100 | < 0.0445 | 1.67 | 0.0267 | > 100 | 0.109 | > 100 | 0.173 | > 100 | 1.54 | > 100 | 0.0844 | > 100 | 36.4 | > 100
10 | O=C(Nc1ccccc1)OC1OC(COC(=O)c2ccccc2)C(OC(=O)c2ccccc2)C1OS(=O)(=O)c1ccc([N+](=O)[O-])cc1 (centres undefined) | – | > 100 | – | > 100 | – | > 100 | – | > 100 | – | > 100 | – | > 100 | – | > 100 | – | > 100 | – | > 100 | – | > 100
11 | CC1=C(C(=O)Nc2ccc(F)c(Cl)c2)C(c2cccc(Oc3ccccc3)c2)NC(=S)N1 (centres undefined) | 13.7 | > 50 | 14.8 | 41.5 | 23.8 | > 50 | 21 | > 50 | 12 | 27.3 | > 50 | > 50 | 10.5 | 24.2 | 9.72 | 27.2 | 9.27 | 17.6 | 16.3 | > 50
12 | COS(C)(=O)=O | – | > 2 | – | > 2 | – | > 2 | – | > 2 | – | > 2 | – | > 2 | – | > 2 | – | > 2 | – | > 2 | – | > 2
13 | CCOc1ccc(C(C[N+](=O)[O-])Sc2ccccc2N)cc1 (centres undefined) | 7.82 | 23 | 14.8 | 30 | 1.77 | 3.25 | 16.5 | 30.9 | 6.6 | 19.5 | 3.73 | 16.9 | 4.76 | 18.3 | 16.1 | 31.2 | 3.23 | 13.4 | 15.4 | 29.2
14 | O=C1C=C2CCCC2C(C(=O)O)(C(=O)O)C1 (centres undefined) | – | > 100 | – | > 100 | – | > 100 | – | > 100 | – | > 100 | – | > 100 | – | > 100 | – | > 100 | – | > 100 | – | > 100
15 | CCN1C(=O)N(CC)C2C1NN=c1s/c(=C3\C(=O)N(C4CCCC4)c4ccccc43)c(=O)n12 (centres undefined) | 1.55 | > 100 | 3.36 | > 100 | 1.65 | 5.19 | 1.21 | 6.4 | 0.913 | 6.73 | 3.42 | > 100 | 2.38 | 27.6 | 2.76 | 17.6 | 2.76 | > 100 | 2.78 | 9.89
16 | CCOC(=O)c1c(C)nc2c(c1N)/C(=C/c1ccccn1)C(=O)N2Cc1ccccc1 | 2.52 | > 50 | 1.21 | > 50 | 0.895 | 1.77 | 0.903 | 1.86 | 1.03 | 2.39 | 1.72 | > 50 | 1.41 | > 50 | 1.16 | 3.01 | 1.15 | 3.09 | 1.51 | > 50
17 | O=C1Cc2cc(CCn3cncn3)c(Cl)cc2N1 | 16.5 | > 100 | 0.825 | > 100 | > 100 | > 100 | 3.02 | > 100 | 3.98 | > 100 | > 100 | > 100 | 59.6 | > 100 | 12.4 | > 100 | > 100 | > 100 | > 100 | > 100
18 | Clc1cccc(CNc2c3ccccc3nc3ccccc23)c1 | 2.07 | 6.01 | 2.76 | 11.2 | 1.65 | 3.19 | 1.12 | 3.82 | 1.53 | 3.02 | 2.51 | 10.7 | 2.54 | 7.88 | 2 | 4.22 | 2.36 | 11 | 2.95 | 8.99
